Source: the supplement of paper PMC10307832

Legend:
Test in all cases: relative viability (nuclei count vs DMSO), 5 days (fraction); higher = more cells survive
[1] = compound: COC1=CC=C(C=C1)CN2C=CC3=C2C=C(C=C3)C(=O)NO + N=C(N)NC(=N)NCCc1ccccc1 [Phenformin] (partner 250 µM)
Summary of the method: (§1)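 Relative viability divides the nuclei count in treated wells by that in vehicle wells. Lung cancer cell lines were seeded in 1536-well plates, dosed by pin tool the next day, and fixed and stained after 5 days in one step with final 0.05% Triton X-100, 1% formaldehyde and 1 ug/ml Hoechst. Dosing was a single drug or a fixed anchor-drug dose plus five library-drug doses (not always all listed) in √10 steps, and values are medians of duplicate plates imaged at 4×.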

Veliparib + Lapatinib = compound: C[C@]1(c2nc3c(C(N)=O)cccc3[nH]2)CCCN1 [Veliparib] + CS(=O)(=O)CCNCc1ccc(-c2ccc3ncnc(Nc4ccc(OCc5cccc(F)c5)c(Cl)c4)c3c2)o1 [Lapatinib] (partner 2 µM)
Summary of the method: as §1

[2] = compound: COC1=CC=C(C=C1)CN2C=CC3=C2C=C(C=C3)C(=O)NO + O=C(CCCCCCC(=O)Nc1ccccc1)NO [Vorinostat] (partner 1 µM)
Summary of the method: as §1

Veliparib + Vorinostat = compound: C[C@]1(c2nc3c(C(N)=O)cccc3[nH]2)CCCN1 [Veliparib] + O=C(CCCCCCC(=O)Nc1ccccc1)NO [Vorinostat] (partner 1 µM)
Summary of the method: as §1

Cell Line: NCI-H2170
- relative viability ([1]; first compound 0.08 µM): 0.407
- relative viability ([1]; first compound 0.253 µM): 0.396
- relative viability ([1]; first compound 0.8 µM): 0.411
- relative viability ([1]; first compound 2.53 µM): 0.419
- relative viability ([1]; first compound 8 µM): 0.381
- relative viability (Veliparib + Lapatinib; first compound 0.02 µM): 0.259
- relative viability (Veliparib + Lapatinib; first compound 0.06325 µM): 0.245
- relative viability (Veliparib + Lapatinib; first compound 0.2 µM): 0.268
- relative viability (Veliparib + Lapatinib; first compound 0.6325 µM): 0.299
- relative viability (Veliparib + Lapatinib; first compound 2 µM): 0.285
- relative viability ([2]; first compound 0.08 µM): 0.76
- relative viability ([2]; first compound 0.253 µM): 0.958
- relative viability ([2]; first compound 0.8 µM): 0.799
- relative viability ([2]; first compound 2.53 µM): 0.787
- relative viability ([2]; first compound 8 µM): 0.713
- relative viability (Veliparib + Vorinostat; first compound 0.02 µM): 0.795
- relative viability (Veliparib + Vorinostat; first compound 0.06325 µM): 0.777
- relative viability (Veliparib + Vorinostat; first compound 0.2 µM): 0.839
- relative viability (Veliparib + Vorinostat; first compound 0.6325 µM): 0.786
- relative viability (Veliparib + Vorinostat; first compound 2 µM): 0.79

Cell Line: NCI-H661
- relative viability ([1]; first compound 0.253 µM): 0.271
- relative viability ([1]; first compound 0.8 µM): 0.313
- relative viability ([1]; first compound 2.53 µM): 0.272
- relative viability ([1]; first compound 8 µM): 0.29
- relative viability (Veliparib + Lapatinib; first compound 0.02 µM): 0.413
- relative viability (Veliparib + Lapatinib; first compound 0.06325 µM): 0.483
- relative viability (Veliparib + Lapatinib; first compound 0.2 µM): 0.56
- relative viability (Veliparib + Lapatinib; first compound 0.6325 µM): 0.447
- relative viability (Veliparib + Lapatinib; first compound 2 µM): 0.533
- relative viability ([2]; first compound 0.253 µM): 0.807
- relative viability ([2]; first compound 0.8 µM): 0.717
- relative viability ([2]; first compound 2.53 µM): 0.747
- relative viability ([2]; first compound 8 µM): 0.639
- relative viability (Veliparib + Vorinostat; first compound 0.02 µM): 0.815
- relative viability (Veliparib + Vorinostat; first compound 0.06325 µM): 0.807
- relative viability (Veliparib + Vorinostat; first compound 0.2 µM): 0.713
- relative viability (Veliparib + Vorinostat; first compound 0.6325 µM): 0.697
- relative viability (Veliparib + Vorinostat; first compound 2 µM): 0.76

Cell Line: NCI-H1666
- relative viability ([1]; first compound 0.08 µM): 0.559
- relative viability ([1]; first compound 0.253 µM): 0.558
- relative viability ([1]; first compound 0.8 µM): 0.557
- relative viability ([1]; first compound 2.53 µM): 0.579
- relative viability ([1]; first compound 8 µM): 0.523
- relative viability (Veliparib + Lapatinib; first compound 0.02 µM): 0.606
- relative viability (Veliparib + Lapatinib; first compound 0.06325 µM): 0.348
- relative viability (Veliparib + Lapatinib; first compound 0.2 µM): 0.675
- relative viability (Veliparib + Lapatinib; first compound 0.6325 µM): 0.744
- relative viability (Veliparib + Lapatinib; first compound 2 µM): 0.662
- relative viability ([2]; first compound 0.08 µM): 0.945
- relative viability ([2]; first compound 0.253 µM): 1.09
- relative viability ([2]; first compound 0.8 µM): 1.01
- relative viability ([2]; first compound 2.53 µM): 1.09
- relative viability ([2]; first compound 8 µM): 1.04
- relative viability (Veliparib + Vorinostat; first compound 0.02 µM): 0.988
- relative viability (Veliparib + Vorinostat; first compound 0.06325 µM): 0.963
- relative viability (Veliparib + Vorinostat; first compound 0.2 µM): 1.14
- relative viability (Veliparib + Vorinostat; first compound 0.6325 µM): 0.997
- relative viability (Veliparib + Vorinostat; first compound 2 µM): 1.05

Cell Line: NCI-H2347
- relative viability ([1]; first compound 0.08 µM): 0.382
- relative viability ([1]; first compound 0.253 µM): 0.357
- relative viability ([1]; first compound 0.8 µM): 0.415
- relative viability ([1]; first compound 2.53 µM): 0.525
- relative viability ([1]; first compound 8 µM): 0.368
- relative viability (Veliparib + Lapatinib; first compound 0.02 µM): 0.962
- relative viability (Veliparib + Lapatinib; first compound 0.06325 µM): 0.917
- relative viability (Veliparib + Lapatinib; first compound 0.2 µM): 0.897
- relative viability (Veliparib + Lapatinib; first compound 0.6325 µM): 1.01
- relative viability (Veliparib + Lapatinib; first compound 2 µM): 0.944
- relative viability ([2]; first compound 0.08 µM): 0.502
- relative viability ([2]; first compound 0.253 µM): 0.611
- relative viability ([2]; first compound 0.8 µM): 0.736
- relative viability ([2]; first compound 2.53 µM): 0.796
- relative viability ([2]; first compound 8 µM): 0.559
- relative viability (Veliparib + Vorinostat; first compound 0.02 µM): 0.716
- relative viability (Veliparib + Vorinostat; first compound 0.06325 µM): 0.545
- relative viability (Veliparib + Vorinostat; first compound 0.2 µM): 0.561
- relative viability (Veliparib + Vorinostat; first compound 0.6325 µM): 0.616
- relative viability (Veliparib + Vorinostat; first compound 2 µM): 0.637

Cell Line: HCC-366
- relative viability ([1]; first compound 0.08 µM): 0.633
- relative viability ([1]; first compound 0.253 µM): 0.624
- relative viability ([1]; first compound 0.8 µM): 0.634
- relative viability ([1]; first compound 2.53 µM): 0.599
- relative viability ([1]; first compound 8 µM): 0.532
- relative viability (Veliparib + Lapatinib; first compound 0.02 µM): 1.06
- relative viability (Veliparib + Lapatinib; first compound 0.06325 µM): 0.897
- relative viability (Veliparib + Lapatinib; first compound 0.2 µM): 0.929
- relative viability (Veliparib + Lapatinib; first compound 0.6325 µM): 0.974
- relative viability (Veliparib + Lapatinib; first compound 2 µM): 1.09
- relative viability ([2]; first compound 0.08 µM): 0.107
- relative viability ([2]; first compound 0.253 µM): 0.303
- relative viability ([2]; first compound 0.8 µM): 0.385
- relative viability ([2]; first compound 2.53 µM): 0.407
- relative viability ([2]; first compound 8 µM): 0.223
- relative viability (Veliparib + Vorinostat; first compound 0.02 µM): 0.379
- relative viability (Veliparib + Vorinostat; first compound 0.06325 µM): 0.232
- relative viability (Veliparib + Vorinostat; first compound 0.2 µM): 0.296
- relative viability (Veliparib + Vorinostat; first compound 0.6325 µM): 0.27
- relative viability (Veliparib + Vorinostat; first compound 2 µM): 0.289

Cell Line: NCI-H2009
- relative viability ([1]; first compound 0.08 µM): 0.489
- relative viability ([1]; first compound 0.253 µM): 0.483
- relative viability ([1]; first compound 0.8 µM): 0.482
- relative viability ([1]; first compound 2.53 µM): 0.501
- relative viability ([1]; first compound 8 µM): 0.43
- relative viability (Veliparib + Lapatinib; first compound 0.02 µM): 0.748
- relative viability (Veliparib + Lapatinib; first compound 0.06325 µM): 0.903
- relative viability (Veliparib + Lapatinib; first compound 0.2 µM): 0.909
- relative viability (Veliparib + Lapatinib; first compound 0.6325 µM): 0.815
- relative viability (Veliparib + Lapatinib; first compound 2 µM): 1.03
- relative viability ([2]; first compound 0.08 µM): 0.498
- relative viability ([2]; first compound 0.253 µM): 0.751
- relative viability ([2]; first compound 0.8 µM): 0.722
- relative viability ([2]; first compound 2.53 µM): 0.75
- relative viability ([2]; first compound 8 µM): 0.708
- relative viability (Veliparib + Vorinostat; first compound 0.02 µM): 0.771
- relative viability (Veliparib + Vorinostat; first compound 0.06325 µM): 0.65
- relative viability (Veliparib + Vorinostat; first compound 0.2 µM): 0.709
- relative viability (Veliparib + Vorinostat; first compound 0.6325 µM): 0.708
- relative viability (Veliparib + Vorinostat; first compound 2 µM): 0.795

Cell Line: NCI-H460
- relative viability ([1]; first compound 0.08 µM): 0.519
- relative viability ([1]; first compound 0.253 µM): 0.463
- relative viability ([1]; first compound 0.8 µM): 0.509
- relative viability ([1]; first compound 2.53 µM): 0.473
- relative viability ([1]; first compound 8 µM): 0.188
- relative viability (Veliparib + Lapatinib; first compound 0.06325 µM): 0.866
- relative viability (Veliparib + Lapatinib; first compound 0.2 µM): 0.909
- relative viability (Veliparib + Lapatinib; first compound 0.6325 µM): 0.904
- relative viability (Veliparib + Lapatinib; first compound 2 µM): 1.01
- relative viability ([2]; first compound 0.08 µM): 0.508
- relative viability ([2]; first compound 0.253 µM): 0.736
- relative viability ([2]; first compound 0.8 µM): 0.758
- relative viability ([2]; first compound 2.53 µM): 0.783
- relative viability ([2]; first compound 8 µM): 0.57
- relative viability (Veliparib + Vorinostat; first compound 0.02 µM): 0.693
- relative viability (Veliparib + Vorinostat; first compound 0.06325 µM): 0.608
- relative viability (Veliparib + Vorinostat; first compound 0.2 µM): 0.599
- relative viability (Veliparib + Vorinostat; first compound 0.6325 µM): 0.602
- relative viability (Veliparib + Vorinostat; first compound 2 µM): 0.635

Cell Line: NCI-H2085
- relative viability ([1]; first compound 0.08 µM): 0.739
- relative viability ([1]; first compound 0.253 µM): 0.758
- relative viability ([1]; first compound 0.8 µM): 0.84
- relative viability ([1]; first compound 2.53 µM): 0.722
- relative viability ([1]; first compound 8 µM): 0.647
- relative viability (Veliparib + Lapatinib; first compound 0.02 µM): 0.473
- relative viability (Veliparib + Lapatinib; first compound 0.06325 µM): 0.684
- relative viability (Veliparib + Lapatinib; first compound 0.2 µM): 0.677
- relative viability (Veliparib + Lapatinib; first compound 0.6325 µM): 0.782
- relative viability (Veliparib + Lapatinib; first compound 2 µM): 0.637
- relative viability ([2]; first compound 0.08 µM): 0.835
- relative viability ([2]; first compound 0.253 µM): 0.828
- relative viability ([2]; first compound 0.8 µM): 0.828
- relative viability ([2]; first compound 2.53 µM): 0.828
- relative viability ([2]; first compound 8 µM): 0.807
- relative viability (Veliparib + Vorinostat; first compound 0.02 µM): 0.601
- relative viability (Veliparib + Vorinostat; first compound 0.06325 µM): 0.778
- relative viability (Veliparib + Vorinostat; first compound 0.2 µM): 0.753
- relative viability (Veliparib + Vorinostat; first compound 0.6325 µM): 0.763
- relative viability (Veliparib + Vorinostat; first compound 2 µM): 0.756
